Experiment: Example 3: phase 3 trial, enavogliflozin 0.3 mg vs dapagliflozin 10 mg once a day for 24 weeks added to metformin and gemigliptin in patients with type 2 diabetes (same endpoints, rescue drug)
Type: in vivo, human
Details: for Subjects achieving therapeutic glycemic response 1, %: response 1 = HbA1c change >0.5% or HbA1c <7%; for Subjects achieving therapeutic glycemic response 2, %: response 2 = HbA1c change >0.7% or HbA1c <7%; for Subjects achieving therapeutic glycemic response 3, %: response 3 = HbA1c change >1% or HbA1c <7%
Protocol: 1) when Metformin (≥1,000 mg/Day) was Administered at a Constant Dose for at Least 8 Weeks Prior to Pre-Visit (Pre-Screening) • Metformin (≥1,000 mg/day) and gemigliptin (50 mg/day) were co-administered during the 8-week stabilization period. […] 4) when Metformin (≥1,000 mg/Day) and Gemigliptin (50 mg/Day) were Co-Administered at Constant Doses for at Least 8 Weeks Prior to Pre-Visit (Prescreening) • Without a separate stabilization period, Pre-visit (pre-screening) was Visit 1 (screening).
Subjects who met the inclusion/exclusion criteria continued to receive metformin and gemigliptin while receiving a placebo of the clinical trial drug in a single-blind (subject-blinded) state for a 2-week run-in period.
Here, the randomized subjects were stratified according to the administration therapy (co-administration with two or less agents (one or two agents) or three or more agents) of a conventional hypoglycemic agent (before washout of another hypoglycemic agent) within 24 weeks prior to obtaining written informed consent and by an HbA1c value (<8% or ≥8%) at Visit 1 (screening) measured in the central laboratory.
The randomized subjects were administered two tablets of the clinical trial drug corresponding to each administration group once a day, and then visited the institution at weeks 6, 12, 18, and 24 during the 24-week administration period to conduct efficacy and safety assessments. In addition, during the clinical trial period, they were instructed to exercise regularly and control their diet without changing their daily life patterns.
• 1) Change in HbA1c at week 24 after administration of clinical trial drug compared to Visit 2 (randomization)
• 1) Change in HbA1c at each time point of weeks 6, 12, and 18 after administration of clinical trial drug compared to Visit 2 (randomization) • 2) Change in FPG at each time point of weeks 6, 12, 18, and 24 after administration of clinical trial drug compared to Visit 2 (randomization) • 3) Proportion of subjects achieving HbA1c<7% at each time point of weeks 6, 12, 18, and 24 after administration of clinical trial drug • 4) Proportion of subjects achieving HbA1c<6.5% at each time point of weeks 6, 12, 18, and 24 after administration of clinical trial drug • 5) Proportion of subjects achieving therapeutic response (HbA1c change (HbA1c at Visit 2—HbA1c at each evaluation time point)>0.5% or HbA1c<7% at each evaluation time point compared to Visit 2 (randomization)) at each time point of weeks 6, 12, 18, and 24 after administration of clinical trial drug • 6) Proportion of subjects achieving therapeutic response (HbA1c change (HbA1c at Visit 2—HbA1c at each evaluation time point)>0.7% or HbA1c<7% at each evaluation time point compared to Visit 2 (randomization)) at each time point of weeks 6, 12, 18, and 24 after administration of clinical trial drug • 7) Proportion of subjects achieving therapeutic response (HbA1c change (HbA1c at Visit 2—HbA1c at each evaluation time point)>1% or HbA1c<7% at each evaluation time point compared to Visit 2 (randomization)) at each time point of weeks 6, 12, 18, and 24 after administration of clinical trial drug

[1] = week 18, per-protocol set, enavogliflozin 0.3 mg, dapagliflozin 10 mg
[2] = week 24, modified per-protocol set 1, enavogliflozin 0.3 mg, dapagliflozin 10 mg
[3] = week 24, modified per-protocol set 2
[4] = week 24, modified per-protocol set 2, enavogliflozin 0.3 mg, dapagliflozin 10 mg
[5] = week 24, per-protocol set, enavogliflozin 0.3 mg, dapagliflozin 10 mg

In the case of `CCOc1ccc(Cc2cc([C@@H]3O[C@H](CO)[C@@H](O)[C@H](O)[C@H]3O)ccc2Cl)cc1` [Dapagliflozin, reference compound], the “body weight, Median” value [1] is reported as 62.30 kg, the “Subjects achieving therapeutic glycemic response 1, %” value [1] is reported as 82.93% and the “Subjects achieving therapeutic glycemic response 2, %” value [1] is reported as 76.42%. The “Subjects achieving therapeutic glycemic response 3, %” value [1] was 70.73%, the “FPG change from baseline, LS mean (SE)” value (week 24) was −23.72(1.78) mg/dL and the “HDL-C change from baseline, LS mean (SE)” value (week 24) was 4.40(0.69) mg/dL. For the same compound, the “HOMA-IR change from baseline, LS mean (SE)” value (week 24) was −0.93(0.11), the “HOMA-β change from baseline, LS mean (SE)” value (week 24) was 5.78(4.72) and the “HbA1c change from baseline, LS mean (SE)” value (week 24) was −0.86(0.05) % p. For the same compound, the “HbA1c change from baseline, Mean (SD)” value (week 24) was −0.89(0.65) % p, the “LDL-C change from baseline, LS mean (SE)” value (week 24) was 3.12(1.85) mg/dL and the “UACR change from baseline, LS mean (SE)” value (week 24) was −16.13 (3.84) g/kg. For the same compound, the “UGCR change from baseline, LS mean (SE)” value (week 24) was 43.51(2.26) mg/mg, the “adiponectin change from baseline, LS mean (SE)” value (week 24) was 0.92(0.35) μg/mL and the “body weight change from baseline, LS mean (SE)” value (week 24) was −3.01(0.22) kg. For the same compound, the “diastolic blood pressure change from baseline, LS mean (SE)” value (week 24) was −1.89(0.70) mmHg, the “fasting C-peptide change from baseline, LS mean (SE)” value (week 24) was −0.08(0.02) ng/ml and the “leptin change from baseline, LS mean (SE)” value (week 24) was −0.57(0.51) ng/mL. For the same compound, the “systolic blood pressure change from baseline, LS mean (SE)” value (week 24) was −4.27(0.93) mmHg, the “total cholesterol change from baseline, LS mean (SE)” value (week 24) was 5.57(2.03) mg/dL and the “triglyceride change from baseline, LS mean (SE)” value (week 24) was −8.78(3.94) mg/dL. For the same compound, the “Proportion of subjects who received a rescue drug” value (week 24, FAS) was 0.74%, the “Change from baseline in HDL-C, ANCOVA LS mean” value [2] was 4.40 mg/dL and the “Change from baseline in HDL-C, Mean” value [2] was 4.44 mg/dL. For the same compound, the “Change from baseline in HDL-C, Median” value [2] was 4.00 mg/dL, the “Change from baseline in LDL-C, ANCOVA LS mean” value [2] was 3.12 mg/dL and the “Change from baseline in LDL-C, Mean” value [2] was 2.72 mg/dL. The “Change from baseline in LDL-C, Median” value [2] was 1.50 mg/dL, the “Change from baseline in total cholesterol, ANCOVA LS mean” value [2] was 5.57 mg/dL and the “Change from baseline in total cholesterol, Mean” value [2] was 4.69 mg/dL. For the same compound, the “Change from baseline in total cholesterol, Median” value [2] was 3.00 mg/dL, the “Change from baseline in triglycerides, ANCOVA LS mean” value [2] was -8.78 mg/dL and the “Change from baseline in triglycerides, Mean” value [2] was -13.81 mg/dL. For the same compound, the “Change from baseline in triglycerides, Median” value [2] was -6.00 mg/dL, the “Fasting HDL-C, Mean” value [2] was 51.87 mg/dL and the “Fasting HDL-C, Median” value [2] was 50.50 mg/dL. For the same compound, the “Fasting LDL-C, Mean” value [2] was 80.13 mg/dL, the “Fasting LDL-C, Median” value [2] was 71.50 mg/dL and the “Fasting total cholesterol, Mean” value [2] was 148.49 mg/dL. For the same compound, the “Fasting triglycerides, Mean” value [2] was 118.68 mg/dL, the “Fasting triglycerides, Median” value [2] was 104.00 mg/dL and the “fasting Total cholesterol, Median” value [2] was 145.00 mg/dL. For the same compound, the “Change from baseline in diastolic blood pressure, ANCOVA LS mean” value [3] was −1.89 mmHg, the “Change from baseline in diastolic blood pressure, Mean” value [3] was −1.60 mmHg and the “Change from baseline in diastolic blood pressure, Median” value [3] was −2.00 mmHg. For the same compound, the “Diastolic blood pressure, Mean” value [3] was 72.27 mmHg, the “Diastolic blood pressure, Median” value [3] was 73.00 mmHg and the “Change from baseline in systolic blood pressure, ANCOVA LS mean” value [4] was −4.27 mmHg. The “Change from baseline in systolic blood pressure, Mean” value [4] was −3.74 mmHg, the “Change from baseline in systolic blood pressure, Median” value [4] was −4.00 mmHg and the “Systolic blood pressure, Mean” value [4] was 120.20 mmHg. The “Systolic blood pressure, Median” value [4] was 119.00 mmHg, the “Adiponectin, Mean” value (week 24, per-protocol set) was 7.18 µg/mL and the “Adiponectin, Median” value (week 24, per-protocol set) was 6.39 µg/mL. For the same compound, the “Change from baseline in HOMA-IR, ANCOVA LS mean” value (week 24, per-protocol set) was −0.93, the “Change from baseline in HOMA-IR, Mean” value (week 24, per-protocol set) was −0.88 and the “Change from baseline in HOMA-IR, Median” value (week 24, per-protocol set) was −0.70. The “Change from baseline in HOMA-β, ANCOVA LS mean” value (week 24, per-protocol set) was 5.78, the “Change from baseline in HOMA-β, Mean” value (week 24, per-protocol set) was 7.95 and the “Change from baseline in HOMA-β, Median” value (week 24, per-protocol set) was 7.20. The “Change from baseline in UACR, ANCOVA LS mean” value (week 24, per-protocol set) was -16.13 g/kg, the “Change from baseline in UACR, Mean” value (week 24, per-protocol set) was -11.12 g/kg and the “Change from baseline in UACR, Median” value (week 24, per-protocol set) was -0.70 g/kg. The “Change from baseline in UGCR, ANCOVA LS mean” value (week 24, per-protocol set) was 43.51 mg/mg, the “Change from baseline in UGCR, Mean” value (week 24, per-protocol set) was 42.31 mg/mg and the “Change from baseline in UGCR, Median” value (week 24, per-protocol set) was 42.35 mg/mg. For the same compound, the “Change from baseline in adiponectin, ANCOVA LS mean” value (week 24, per-protocol set) was 0.92 µg/mL, the “Change from baseline in adiponectin, Mean” value (week 24, per-protocol set) was 0.84 µg/mL and the “Change from baseline in adiponectin, Median” value (week 24, per-protocol set) was 0.78 µg/mL. For the same compound, the “Change from baseline in leptin, ANCOVA LS mean” value (week 24, per-protocol set) was -0.57 ng/mL, the “Change from baseline in leptin, Mean” value (week 24, per-protocol set) was -0.74 ng/mL and the “Change from baseline in leptin, Median” value (week 24, per-protocol set) was -0.46 ng/mL. For the same compound, the “HOMA-IR (insulin resistance), Mean” value (week 24, per-protocol set) was 1.97, the “HOMA-IR (insulin resistance), Median” value (week 24, per-protocol set) was 1.55 and the “HOMA-β (beta-cell function), Mean” value (week 24, per-protocol set) was 48.41. The “HOMA-β (beta-cell function), Median” value (week 24, per-protocol set) was 36.70, the “Leptin, Mean” value (week 24, per-protocol set) was 10.10 ng/mL and the “Leptin, Median” value (week 24, per-protocol set) was 8.14 ng/mL. For the same compound, the “UACR, Mean” value (week 24, per-protocol set) was 23.58 g/kg, the “UACR, Median” value (week 24, per-protocol set) was 10.20 g/kg and the “UGCR, Mean” value (week 24, per-protocol set) was 43.84 mg/mg. For the same compound, the “UGCR, Median” value (week 24, per-protocol set) was 42.85 mg/mg, the “Body weight, Mean” value [5] was 64.38 kg and the “Change from baseline in FPG, ANCOVA LS mean” value [5] was -23.72 mg/dL. The “Change from baseline in FPG, Mean” value [5] was -23.70 mg/dL, the “Change from baseline in FPG, Median” value [5] was -20.00 mg/dL and the “Change from baseline in body weight, ANCOVA LS mean” value [5] was -3.01 kg. The “Change from baseline in body weight, Mean” value [5] was -2.83 kg, the “Change from baseline in body weight, Median” value [5] was -2.60 kg and the “Change from baseline in fasting C-peptide, ANCOVA LS mean” value [5] was -0.08 ng/mL. For the same compound, the “Change from baseline in fasting C-peptide, Mean” value [5] was -0.07 ng/mL, the “Change from baseline in fasting C-peptide, Median” value [5] was -0.10 ng/mL and the “FPG, Mean” value [5] was 116.82 mg/dL. The “FPG, Median” value [5] was 114.00 mg/dL, the “Fasting C-peptide, Mean” value [5] was 0.62 ng/mL and the “Fasting C-peptide, Median” value [5] was 0.56 ng/mL. The “Subjects achieving HbA1c target of <6.5%, (%)” value [5] was 17.07%, the “Subjects achieving HbA1c target of <7%, %” value [5] was 62.60% and the “body weight, Median” value [5] was 62.90 kg. For the same compound, the “Subjects achieving therapeutic glycemic response 1, %” value [5] was 85.37%, the “Subjects achieving therapeutic glycemic response 2, %” value [5] was 82.11% and the “Subjects achieving therapeutic glycemic response 3, %” value [5] was 74.80%.

Reference: US20260130933A1, “PHARMACEUTICAL COMPOSITION FOR PREVENTION OR TREATMENT OF NEPHROPATHY AND/OR DIABETES MELLITUS, COMPRISING ENAVOGLIFLOZIN” (DAEWOONG PHARMACEUTICAL CO., LTD., priority 2022, published 2026)
